Test systems include 786-0 renal; LOX IMVI melanoma; MDA-MB-231 breast; MOLT-4 leukemia; NCI-H226 lung; OVCAR-4 ovarian; PC-3 prostate; SF-539 CNS; SK-MEL-2 melanoma; SK-MEL-28 melanoma; SK-MEL-5 melanoma.
Common to all, as to test: inhibition of tumour cell growth, NCI panel, 48 h

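Protocol summary: plate cells (96-well), add compound at 5 concentrations, incubate 48 h, interpolate endpoints linearly. TGI denotes the concentration required for complete inhibition of growth.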 Where only a bound is given, the exact number is not on record here.

As for `Nc1cccc(/C=C/C(=O)N2CCN(CCOC(c3ccccc3)c3ccccc3)CC2)c1`, the TGI in the test on 786-0 renal is 30.3 µM; with LOX IMVI melanoma it was 32.2 µM; with MDA-MB-231 breast, 29.1 µM; in the test on MOLT-4 leukemia, 21.2 µM; in the test on NCI-H226 lung, 39.8 µM; in the test with OVCAR-4 ovarian, 26.1 µM. Also, the TGI in the test on PC-3 prostate worked out at 28.9 µM; in the test with SF-539 CNS, 31 µM; in the test on SK-MEL-2 melanoma it was 29.7 µM; with SK-MEL-28 melanoma it was 28.9 µM; with SK-MEL-5 melanoma, 29.4 µM.
Regarding `COc1ccc2c(c1)[nH]c1c(/C=C/c3ccccc3)nccc12`, the TGI is 42.2 µM in the test with 786-0 renal; 63.2 µM in the test on LOX IMVI melanoma; 37.2 µM in the test on MDA-MB-231 breast; more than 100 µM with MOLT-4 leukemia; 53.1 µM with NCI-H226 lung; more than 100 µM with OVCAR-4 ovarian. In addition, the TGI in the test on PC-3 prostate was 38.9 µM; in the test on SF-539 CNS, 32.3 µM; with SK-MEL-2 melanoma it was 33.2 µM; in the test on SK-MEL-28 melanoma it was 31.9 µM; in the test with SK-MEL-5 melanoma, 36.6 µM.
For `NCCCCc1cc(O)c2c(c1O)C(=O)c1ccccc1C2=O`, the TGI in the test on 786-0 renal came to 19.6 µM; in the test with LOX IMVI melanoma, 21.2 µM; with MDA-MB-231 breast it was 24.2 µM; with MOLT-4 leukemia, 10.1 µM; with NCI-H226 lung it was 19.2 µM; in the test on OVCAR-4 ovarian it was 35 µM. Further, the TGI in the test on PC-3 prostate worked out at 22.8 µM; in the test with SF-539 CNS, 21.8 µM; in the test on SK-MEL-2 melanoma, 32.4 µM; in the test on SK-MEL-28 melanoma it was 33.6 µM; in the test with SK-MEL-5 melanoma, 28.3 µM.
On to `O=C(C[n+]1ccc2ccccc2c1)c1ccc2ccc3ccccc3c2c1`, for which the TGI was determined as 18 µM with 786-0 renal; 6.57 µM in the test on LOX IMVI melanoma; 15.3 µM in the test with MDA-MB-231 breast; 2.69 µM in the test with MOLT-4 leukemia; 25.3 µM in the test with NCI-H226 lung; 19.7 µM with OVCAR-4 ovarian. The TGI in the test on PC-3 prostate is 15.3 µM; in the test with SF-539 CNS it was 14.2 µM; with SK-MEL-2 melanoma, 15.9 µM; in the test on SK-MEL-28 melanoma, 9.08 µM; in the test on SK-MEL-5 melanoma it was 14.4 µM.
Regarding `CC12CC3OC(=O)C1COC14OC5(C2C1=O)C(O)(CCC1C4CC(O)C2(O)CC=CC(=O)C12C)C(=O)OC35C` (stereo unspecified), the TGI with 786-0 renal, in the test with LOX IMVI melanoma, in the test with MDA-MB-231 breast, in the test with MOLT-4 leukemia, in the test with NCI-H226 lung and in the test with OVCAR-4 ovarian was more than 100 µM each time. The TGI in the test with PC-3 prostate, in the test with SF-539 CNS, with SK-MEL-2 melanoma, in the test with SK-MEL-28 melanoma and with SK-MEL-5 melanoma was more than 100 µM in each case.
Regarding `CC1CC[C@@]2(OC1)OC1C[C@H]3[C@@H]4CC=C5CC(OC6OC(CO)C(OC7OC(CO)C(O)C(OC8OCC(O)C(O)C8O)C7OC7OC(CO)C(O)C(O)C7O)C(O)C6O)CCC5(C)[C@H]4CCC3(C)C1[C@@H]2C` (stereo partly specified), the TGI in the test with 786-0 renal is 19.4 µM; with LOX IMVI melanoma it was 8.53 µM; with MDA-MB-231 breast, 9.29 µM; with MOLT-4 leukemia, 19.8 µM; with NCI-H226 lung it was more than 25 µM; in the test on OVCAR-4 ovarian it was 17.4 µM. In addition, the TGI in the test on PC-3 prostate was 7.45 µM; in the test on SF-539 CNS, 7.37 µM; in the test on SK-MEL-2 melanoma, more than 25 µM; in the test on SK-MEL-28 melanoma, more than 25 µM; in the test on SK-MEL-5 melanoma, 8.43 µM.
In the case of `C[C@H](CCC(=O)O)[C@H]1CC[C@@]2(C)[C@@H]3C(=O)C[C@H]4C(C)(C)[C@@H](O)CC[C@]4(C)[C@H]3C(=O)C[C@]12C`, the TGI in the test with 786-0 renal, in the test on LOX IMVI melanoma, in the test with MDA-MB-231 breast, with MOLT-4 leukemia, in the test on NCI-H226 lung and with OVCAR-4 ovarian was more than 100 µM each time. Moreover, the TGI with PC-3 prostate, in the test on SF-539 CNS, with SK-MEL-2 melanoma, with SK-MEL-28 melanoma and with SK-MEL-5 melanoma was more than 100 µM in each case.
In the case of `Cc1ccccc1C(=O)N/N=C/c1ccc(Sc2nccn2C)c([N+](=O)[O-])c1`, the TGI in the test on 786-0 renal, in the test on LOX IMVI melanoma, in the test with MDA-MB-231 breast, in the test with MOLT-4 leukemia, in the test with NCI-H226 lung and in the test with OVCAR-4 ovarian was more than 100 µM each time. The TGI in the test on PC-3 prostate, with SF-539 CNS, with SK-MEL-2 melanoma, in the test with SK-MEL-28 melanoma and in the test on SK-MEL-5 melanoma was more than 100 µM each time.
`NCCSC(c1ccccc1)c1ccccc1`: the TGI amounted to 32.8 µM in the test with 786-0 renal; 31.2 µM with LOX IMVI melanoma; 37.3 µM in the test on MDA-MB-231 breast; 42.6 µM in the test with MOLT-4 leukemia; 65.6 µM in the test on NCI-H226 lung; 46.8 µM in the test with OVCAR-4 ovarian. The TGI with PC-3 prostate came out at 55.6 µM; in the test with SF-539 CNS, 37.2 µM; in the test on SK-MEL-2 melanoma it was 32.8 µM; in the test on SK-MEL-28 melanoma it was 35.7 µM; in the test on SK-MEL-5 melanoma, 31.1 µM.
In the case of `CC1=CC(=O)c2ccccc2C1=O`, the TGI with 786-0 renal was determined as 28.5 µM; in the test with LOX IMVI melanoma it was 5.72 µM; in the test on MDA-MB-231 breast, 9.87 µM; in the test on MOLT-4 leukemia, 5.15 µM; with NCI-H226 lung, 31 µM; with OVCAR-4 ovarian, 9.54 µM. For the same compound, the TGI in the test with PC-3 prostate was determined as 16.4 µM; with SF-539 CNS it was 11.9 µM; in the test on SK-MEL-2 melanoma, 22.7 µM; with SK-MEL-28 melanoma it was 16.6 µM; with SK-MEL-5 melanoma, 5.92 µM.
Turning to `COc1ccc(C(=O)c2sc(Nc3ccc(Cl)cc3)nc2N)cc1`, the TGI is 28.6 µM with 786-0 renal; more than 100 µM in the test on LOX IMVI melanoma; more than 92.4 µM in the test with MDA-MB-231 breast; more than 71.4 µM in the test on MOLT-4 leukemia; more than 100 µM in the test with NCI-H226 lung; more than 61.4 µM in the test with OVCAR-4 ovarian. The TGI is more than 68.3 µM in the test on PC-3 prostate; 66.2 µM in the test on SF-539 CNS; more than 49.1 µM with SK-MEL-2 melanoma; more than 100 µM with SK-MEL-28 melanoma; more than 100 µM with SK-MEL-5 melanoma.

Source of the values: PubChem BioAssay (NCI).
